ChEMBL document CHEMBL1144268, “Unified Markov thermodynamics based on stochastic forms to classify drugs considering molecular structure, partition system, and biological species: distribution of the antimicrobial G1 on rat tissues” (2005)

What was measured:
Format in all cases: functional
Rattus norvegicus [1] = organism: Rattus norvegicus; test: Plasma concentration measured in rat liver after treatment with the compound
Rattus norvegicus [2] = organism: Rattus norvegicus; test: Partition coefficient in rat adipose tissue
Rattus norvegicus [3] = organism: Rattus norvegicus; test: Plasma concentration measured in rat lung after treatment with the compound
Rattus norvegicus [4] = organism: Rattus norvegicus; test: Partition coefficient in rat spleen
Rattus norvegicus [5] = organism: Rattus norvegicus; test: Partition coefficient in rat liver
Rattus norvegicus [6] = organism: Rattus norvegicus; test: Partition coefficient in rat lung
Rattus norvegicus [7] = organism: Rattus norvegicus; test: Plasma concentration measured in rat adipose tissue after treatment with the compound
Rattus norvegicus [8] = organism: Rattus norvegicus; test: Plasma concentration measured in rat spleen after treatment with the compound
Rattus norvegicus [9] = organism: Rattus norvegicus; test: Plasma concentration measured in rat plasma after treatment with the compound

With `O=[N+]([O-])/C(Br)=C/C1CCC(Br)O1` (centres undefined) as the compound, how does the C (Rattus norvegicus [1]) read?
Its C is 42.25 mg/mL.

What about the PC (Rattus norvegicus [2]) of the same compound?
The PC was 3.17.

And the C (Rattus norvegicus [3])?
Its C is 17.04 mg/mL.

What about the PC (Rattus norvegicus [4]) of the same compound?
Its PC is 1.29.

And the PC (Rattus norvegicus [5])?
The PC was 4.75.

And the PC (Rattus norvegicus [6])?
Its PC is 1.91.

What about the C (Rattus norvegicus [7]) of the same compound?
Its C is 28.19 mg/mL.

And the C (Rattus norvegicus [8])?
Its C is 11.47 mg/mL.

What about the C (Rattus norvegicus [9]) of the same compound?
Its C is 8.9 mg/mL.
